Test results: patent US8609653B2, “Azaindole compounds and methods for treating HIV” (priority 2011, dated 2013)
Counter-ions that a name gives are not always drawn.

test system: HIV; test: MT4 assay: antiviral HIV activity in MT-4 cells; type: cell-based; settings: Human immunodeficiency virus 1, MT4, 96 h, read-out: HIV MT4 Assay IC50 (μM), HTLV-1 transformed cell line MT-4; read-out 96 hours later with cell titer glo; 10 point dose response
Description: Antiviral HIV activity and cytotoxicity values for compounds of the invention from Table 1 were measured in parallel in the HTLV-1 transformed cell line MT-4 based on the method previously described (Hazen et al., 2007, In vitro antiviral activity of the novel, tyrosyl-based human immunodeficiency virus (HIV) type 1 protease inhibitor brecanavir (GW640385) in combination with other antiretrovirals and against a panel of protease inhibitor-resistant HIV (Hazen et al., “In vitro antiviral activity of the novel, tyrosyl-based human immunodeficiency virus (HIV) type 1 protease inhibitor brecanavir (GW640385) in combination with other antiretrovirals and against a panel of protease inhibitor-resistant HIV”, Antimicrob. Agents Chemother. 2007, 51: 3147-3154; and Pauwels et al., “Sensitive and rapid assay on MT-4 cells for the detection of antiviral compounds against the AIDS virus”, J. of Virological Methods 1987, 16: 171-185).
Luciferase activity was measured 96 hours later by adding a cell titer glo (Promega, Madison, Wis.). Percent inhibition of cell protection data was plotted relative to no compound control. Under the same condition, cytotoxicity of the compounds was determined using cell titer Glo™ (Promega, Madison, Wis.). IC50s were determined from a 10 point dose response curve using 3-4-fold serial dilution for each compound, which spans a concentration range>1000 fold.
These values are plotted against the molar compound concentrations using the standard four parameter logistic equation: y=((Vmax*x^n)/(K^n+x^n))+Y2
Y2=minimum y n=slope factor
Vmax=maximum y x=compound concentration [M]

Point of comparison: `Cc1nc2c(ccn2Cc2cccc(F)c2F)c(-c2ccc3c(c2C)NCCO3)c1[C@H](OC(C)(C)C)C(=O)O` (atropisomer, axis not shown; (M)) [Example 104, (S)-2-(tert-Butoxy)-2-((M)-1-(2,3-difluorobenzyl)-6-methyl-4-(5-methyl-3,4-dihydro-2H-benzo[b][1,4]oxazin-6-yl)-1H-pyrrolo[2,3-b]pyridin-5-yl)acetic acid], IC50 0.013 µM. Against it:
- Cc1nc2c(ccn2Cc2ccc(F)c(F)c2)c(-c2ccc3c(c2C)CCCO3)c1[C@H](OC(C)(C)C)C(=O)O (atropisomer, axis not shown; (M)) [Example 87, (2S)(M)-2-(tert-Butoxy)-2-(1-(3,4-difluorobenzyl)-6-methyl-4-(5-methylchroman-6-yl)-1H-pyrrolo[2,3-b]pyridin-5-yl)acetic acid] — 2.6-fold lower, 0.005 µM
- Cc1nc2c(ccn2Cc2ccc(F)c(F)c2)c(-c2cc(Cl)c3c(c2C)CCCO3)c1[C@H](OC(C)(C)C)C(=O)O (atropisomer, axis not shown; (M)) [Example 95, (2S)(M)-2-(tert-butoxy)-2-(4-(8-chloro-5-methylchroman-6-yl)-1-(3,4-difluorobenzyl)-6-methyl-1H-pyrrolo[2,3-b]pyridin-5-yl)acetic acid] — 3.1-fold higher, 0.04 µM
- Cc1nc2c(ccn2Cc2ccc(F)c(F)c2)c(-c2cc(F)c3c(c2C)CCCO3)c1[C@H](OC(C)(C)C)C(=O)O (atropisomer, axis not shown; (M)) [Example 96, (2S)(M)-2-(tert-butoxy)-2-(1-(3,4-difluorobenzyl)-4-(8-fluoro-5-methylchroman-6-yl)-6-methyl-1H-pyrrolo[2,3-b]pyridin-5-yl)acetic acid] — 2.2-fold lower, 0.006 µM
- Cc1nc2c(ccn2Cc2ccc(F)c(F)c2)c(-c2ccc3c(c2C)NCCO3)c1[C@H](OC(C)(C)C)C(=O)O (atropisomer, axis not shown; (M)) [Example 97, (2S)(M)-2-(tert-butoxy)-2-(1-(3,4-difluorobenzyl)-6-methyl-4-(5-methyl-3,4-dihydro-2H-benzo[b][1,4]oxazin-6-yl)-1H-pyrrolo[2,3-b]pyridin-5-yl)acetic acid, trifluoroacetic acid salt] — within 1.5-fold, 0.012 µM
- Cc1nc2c(ccn2Cc2cccc(F)c2F)c(-c2cc(Cl)c3c(c2C)CCCO3)c1[C@H](OC(C)(C)C)C(=O)O (atropisomer, axis not shown; (M)) [Example 98, (2S(M))-2-(tert-butoxy)-2-(4-(8-chloro-5-methylchroman-6-yl)-1-(2,3-difluorobenzyl)-6-methyl-1H-pyrrolo[2,3-b]pyridin-5-yl)acetic acid] — 14-fold higher, 0.181 µM
- Cc1nc2c(ccn2Cc2cccc(F)c2F)c(-c2ccc3c(c2C)CCCO3)c1[C@H](OC(C)(C)C)C(=O)O (atropisomer, axis not shown; (M)) [Example 99, (2S)(M)-2-(tert-butoxy)-2-(1-(2,3-difluorobenzyl)-6-methyl-4-(5-methylchroman-6-yl)-1H-pyrrolo[2,3-b]pyridin-5-yl)acetic acid] — 1.6-fold lower, 0.008 µM
- Cc1ccc(-c2c([C@H](OC(C)(C)C)C(=O)O)c(C)nc3c2ccn3Cc2ccc(F)c(F)c2)c(C)c1 (atropisomer, axis not shown; (M)) [Example 101, (2S)(M)-2-(tert-butoxy)-2-(1-(3,4-difluorobenzyl)-4-(2,4-dimethylphenyl)-6-methyl-1H-pyrrolo[2,3-b]pyridin-5-yl)acetic acid] — 6.9-fold higher, 0.09 µM
- Cc1nc2c(c(-c3ccc4c(c3C)CCCO4)c1[C@H](OC(C)(C)C)C(=O)O)CCN2 (atropisomer, axis not shown; (M)) [Example 108, (2S)(M)-2-(tert-Butoxy)-2-(6-methyl-4-(5-methylchroman-6-yl)-2,3-dihydro-1H-pyrrolo[2,3-b]pyridin-5-yl)acetic acid] — 34-fold higher, 0.44 µM
- Cc1nc2c(ccn2Cc2ccc(F)c(F)c2)c(-c2cc3c(cc2F)OCCC3)c1[C@H](OC(C)(C)C)C(=O)O (atropisomer, axis not shown; (M)) [Example 109, (2S)(M)-2-(tert-butoxy)-2-(1-(3,4-difluorobenzyl)-4-(7-fluorochroman-6-yl)-6-methyl-1H-pyrrolo[2,3-b]pyridin-5-yl)acetic acid] — within 1.5-fold, 0.015 µM
- COc1ccc(-c2c([C@H](OC(C)(C)C)C(=O)O)c(C)nc3c2ccn3Cc2ccc(F)c(F)c2)c(C)c1 (atropisomer, axis not shown; (M)) [Example 111, (2S)(M)-2-(tert-Butoxy)-2-(1-(3,4-difluorobenzyl)-4-(4-methoxy-2-methylphenyl)-6-methyl-1H-pyrrolo[2,3-b]pyridin-5-yl)acetic acid] — 2.8-fold higher, 0.037 µM
- Cc1nc2c(ccn2Cc2ccc(F)c(F)c2)c(-c2ccc3c(c2Cl)NCCO3)c1[C@H](OC(C)(C)C)C(=O)O (atropisomer, axis not shown; (M)) [Example 113, (2S)(2M)-2-(tert-Butoxy)-2-(4-(5-chloro-3,4-dihydro-2H-benzo[b][1,4]oxazin-6-yl)-1-(3,4-difluorobenzyl)-6-methyl-M-pyrrolo[2,3-b]pyridin-5-yl)acetic acid, Trifluoroacetic acid salt] — within 1.5-fold, 0.009 µM
- Cc1nc2c(ccn2Cc2ccc(F)c(F)c2)c(-c2ccc3c(c2Cl)N(C)CCO3)c1[C@H](OC(C)(C)C)C(=O)O (atropisomer, axis not shown; (M)) [Example 116, (2S)(M)-2-(tert-Butoxy)-2-(4-(5-chloro-4-methyl-3,4-dihydro-2H-benzo[b][1,4]oxazin-6-yl)-1-(3,4-difluorobenzyl)-6-methyl-1H-pyrrolo[2,3-b]pyridin-5-yl)acetic acid, Trifluoroacetic acid salt] — 1.7-fold higher, 0.022 µM
- Cc1nc2c(c(-c3ccc4c(c3C)NCCO4)c1[C@H](OC(C)(C)C)C(=O)O)CCN2Cc1cccc(F)c1F (atropisomer, axis not shown; (M)) [Example 118, (2S)(M)-2-(tert-butoxy)-2-(1-(2,3-difluorobenzyl)-6-methyl-4-(5-methyl-3,4-dihydro-2H-benzo[b][1,4]oxazin-6-yl)-2,3-dihydro-1H-pyrrolo[2,3-b]pyridin-5-yl)acetic acid, trifluoroacetic acid salt] — 11-fold higher, 0.14 µM
- Cc1nc2c(c(-c3ccc4c(c3C)CCCO4)c1[C@H](OC(C)(C)C)C(=O)O)CCN2Cc1cccc(F)c1F (atropisomer, axis not shown; (M)) [Example 119] — within 1.5-fold, 0.009 µM
- Cc1cc(F)ccc1Cn1ccc2c(-c3ccc4c(c3C)NCCO4)c([C@H](OC(C)(C)C)C(=O)O)c(C)nc21 (atropisomer, axis not shown; (M)) [Example 122, (2S)(M)-2-(tert-butoxy)-2-(1-(4-fluoro-2-methylbenzyl)-6-methyl-4-(5-methyl-3,4-dihydro-2H-benzo[b][1,4]oxazin-6-yl)-1H-pyrrolo[2,3-b]pyridin-5-yl)acetic acid] — within 1.5-fold, 0.014 µM
- Cc1nc2c(ccn2Cc2ccc(F)c(F)c2)c(-c2ccc3c4c(ccnc24)CCO3)c1[C@H](OC(C)(C)C)C(=O)O (atropisomer, axis not shown; (M)) [Example 124, (S)-2-(tert-butoxy)-2-(1-(3,4-difluorobenzyl)-4-((M)-2,3-dihydropyrano[4,3,2-de]quinolin-7-yl)-6-methyl-1H-pyrrolo[2,3-b]pyridin-5-yl)acetic acid] — 2.7-fold higher, 0.035 µM
